target: T1, recombinant full-length USP7 (Homo sapiens, UniProt Q93009); assay: USP7-mediated ubiquitin-rhodamine cleavage assay; assay type: biochemical; conditions: recombinant full-length USP7 62 pM; ubiquitin-rhodamine 100 nM; 30-minute incubation with compound, 1 hour reaction at room temperature; read-out: Potency: USP7 IC50
T1 construct: A 25 μl reaction volume containing recombinant full-length USP7 (62 pM)
Summary of the method: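 USP7 (62 pM) in 20 mM HEPES pH 7.3, 150 mM NaCl, 1 mM TCEP, 125 μg/ml BSA was preincubated with compound (1% DMSO) for 30 min at room temperature. Ubiquitin-rhodamine (100 nM final) was then added for 1 hour, the reaction stopped with acetic acid, and fluorescence read; IC50 from 4-parameter fit.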

T1 sequence (Q93009 whole entry): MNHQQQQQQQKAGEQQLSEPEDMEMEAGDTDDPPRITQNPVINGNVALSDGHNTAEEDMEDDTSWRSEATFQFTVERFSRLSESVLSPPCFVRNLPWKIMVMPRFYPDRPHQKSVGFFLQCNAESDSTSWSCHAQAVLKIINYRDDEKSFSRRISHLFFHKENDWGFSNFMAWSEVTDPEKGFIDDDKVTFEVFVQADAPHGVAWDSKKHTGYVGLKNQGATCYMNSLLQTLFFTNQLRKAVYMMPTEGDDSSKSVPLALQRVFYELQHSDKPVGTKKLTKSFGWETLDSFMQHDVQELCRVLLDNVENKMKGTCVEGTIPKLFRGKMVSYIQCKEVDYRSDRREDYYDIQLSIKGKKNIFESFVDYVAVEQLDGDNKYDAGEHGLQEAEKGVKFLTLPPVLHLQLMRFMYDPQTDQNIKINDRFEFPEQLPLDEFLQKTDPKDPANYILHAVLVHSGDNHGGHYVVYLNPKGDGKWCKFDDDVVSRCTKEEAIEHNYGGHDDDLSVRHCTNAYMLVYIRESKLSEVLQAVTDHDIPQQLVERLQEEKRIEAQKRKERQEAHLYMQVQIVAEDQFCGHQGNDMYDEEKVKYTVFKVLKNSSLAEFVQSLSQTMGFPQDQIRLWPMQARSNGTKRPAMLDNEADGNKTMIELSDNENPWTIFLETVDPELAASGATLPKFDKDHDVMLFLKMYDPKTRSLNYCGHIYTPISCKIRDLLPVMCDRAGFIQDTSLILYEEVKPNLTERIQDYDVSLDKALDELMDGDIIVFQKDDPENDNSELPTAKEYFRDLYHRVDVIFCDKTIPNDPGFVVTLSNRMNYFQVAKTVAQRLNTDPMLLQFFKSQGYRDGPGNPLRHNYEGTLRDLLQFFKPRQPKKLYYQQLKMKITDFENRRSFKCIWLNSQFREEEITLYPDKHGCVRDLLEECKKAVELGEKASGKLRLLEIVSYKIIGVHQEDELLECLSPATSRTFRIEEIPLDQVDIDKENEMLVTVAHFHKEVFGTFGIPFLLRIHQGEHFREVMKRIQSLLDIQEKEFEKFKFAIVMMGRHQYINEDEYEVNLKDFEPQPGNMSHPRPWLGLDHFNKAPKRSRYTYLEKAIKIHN

IC50 [nM] | Structure (SMILES)
< 1000 | Cc1cc(C(F)(F)F)cc(-c2ccnc3cc(CN4C(=O)C5CC5C4=O)sc23)c1O[C@@H]1CNC[C@@H]1F (stereo partly drawn) [Example 131, 3-((7-(2-(((3R,4S)-4-Fluoropyrrolidin-3-yl)oxy)-3-methyl-5-(trifluoromethyl)phenyl)thieno[3,2-b]pyridin-2-yl)methyl)-3-azabicyclo[3.1.0]hexane-2,4-dione]
< 1000 | Cc1cc(Cl)cc(-c2ccnc3cc(CN4C(=O)CCC4=O)sc23)c1O[C@H]1[C@@H]2CNC[C@H]1C2 [Example 206, 1-((7-(2-(((1R,5S,6s)-3-Azabicyclo[3.1.1]heptan-6-yl)oxy)-5-chloro-3-methylphenyl)thieno[3,2-b]pyridin-2-yl)methyl)pyrrolidine-2,5-dione]
< 1000 | Cc1cc(Cl)cc(-c2ccnc3cc(CN4C(=O)C5CC5C4=O)sc23)c1O[C@@H]1CN(C)C[C@@H]1F (stereo partly drawn) [Example 314, 3-[[7-[5-chloro-2-[(3R,4S)-4-fluoro-1-methyl-pyrrolidin-3-yl]oxy-3-methyl-phenyl]thieno[3,2-b]pyridin-2-yl]methyl]-3-azabicyclo[3.1.0]hexane-2,4-dione]
10000 to 30000 | Cc1cc(Cl)cc(-c2ccnc3cc(CO)sc23)c1OC1COC2(CNC2)C1 (stereo not drawn) [Example 40, (7-(2-((5-Oxa-2-azaspiro[3.4]octan-7-yl)oxy)-5-chloro-3-methylphenyl)thieno[3,2-b]pyridin-2-yl)methanol]
1000 to 10000 | Cc1cc2nccc(-c3cc(Cl)ccc3OCC3CNC3)c2s1 [Example 28, 7-(2-(Azetidin-3-ylmethoxy)-5-chlorophenyl)-2-methylthieno[3,2-b]pyridine]
< 1000 | Cc1cc(C#N)cc(-c2ccnc3cc(CN4C(=O)CCC4=O)sc23)c1OC1CCNCC1 [Example 212, 3-(2-((2,5-Dioxopyrrolidin-1-yl)methyl)thieno[3,2-b]pyridin-7-yl)-5-methyl-4-(piperidin-4-yloxy)benzonitrile]
< 1000 | Cc1cc(Cl)cc(-c2ccnc3cc(Cn4c(=O)ccn(CC(F)(F)F)c4=O)sc23)c1O[C@@H]1CCN(C)C[C@@H]1C [Example 273, 3-((7-(5-Chloro-2-(((3S,4R)-1,3-dimethylpiperidin-4-yl)oxy)-3-methylphenyl)thieno[3,2-b]pyridin-2-yl)methyl)-1-(2,2,2-trifluoroethyl)pyrimidine-2,4(1H,3H)-dione]
10000 to 30000 | Cc1cc(Cl)cc(-c2ccnc3cc(CN4C(=O)CCC4=O)ccc23)c1O[C@@H]1CNC[C@@H]1F [Example 100, 1-((4-(5-Chloro-2-(((3R,4S)-4-fluoropyrrolidin-3-yl)oxy)-3-methylphenyl)quinolin-7-yl)methyl)pyrrolidine-2,5-dione]
10000 to 30000 | Cc1cc(Cl)cc(-c2ccnc3cc(CO)sc23)c1O[C@@H]1CCC[C@@H]1N [Example 74, (7-(2-(((1R,2S)-2-Aminocyclopentyl)oxy)-5-chloro-3-methylphenyl)thieno[3,2-b]pyridin-2-yl)methanol]
10000 to 30000 | Cc1cc(Cl)cc(-c2ccnc3ccsc23)c1OC1CCN(C)CC1 [Example 187, 7-(5-Chloro-3-methyl-2-((1-methylpiperidin-4-yl)oxy)phenyl)thieno[3,2-b]pyridine]

Structure (SMILES) | IC50 [nM]
Cc1cc(Cl)cc(-c2ccnc3cc(CN4C(=O)CCC4=O)sc23)c1O[C@@H]1C[C@H]2CC[C@@H](C1)N2 [Example 215, 1-((7-(2-(((1R,3s,5S)-8-Azabicyclo[3.2.1]octan-3-yl)oxy)-5-chloro-3-methylphenyl)thieno[3,2-b]pyridin-2-yl)methyl)pyrrolidine-2,5-dione] | < 1000

same assay, conditions: recombinant full-length USP7 62 pM; ubiquitin-rhodamine 100 nM; 30-minute pre-incubation, 1 hour reaction at room temperature; read-out: Potency (USP7 IC50)

IC50 [nM] | Structure (SMILES)
< 1000 | Cc1cc(Cl)cc(-c2ncnc3cc(Cn4c(=O)ccn(C(C)C)c4=O)sc23)c1OC1CC2CNC1C2 (stereo not drawn) [Example 509, 3-[[4-[2-(3-azabicyclo[2.2.1]heptan-5-yloxy)-5-chloro-3-methyl-phenyl]thieno[3,2-d]pyrimidin-6-yl]methyl]-1-isopropyl-pyrimidine-2,4-dione]
< 1000 | CCN1CC2CC(Oc3c(C)cc(Cl)cc3-c3ccnc4cc(Cn5c(=O)ccn(C)c5=O)sc34)C1C2 (stereo not drawn) [Example 466, 3-[[7-[5-chloro-2-[(3-ethyl-3-azabicyclo[2.2.1]heptan-5-yl)oxy]-3-methyl-phenyl]thieno[3,2-b]pyridin-2-yl]methyl]-1-methyl-pyrimidine-2,4-dione]
< 1000 | Cc1cc(Cl)cc(-c2ccnc3cc(Cn4c(=O)ccn(C)c4=O)sc23)c1O[C@@H]1C[C@H]2COCCN2C1 [Example 501, 3-[[7-[2-[[(7R,8aS)-3,4,6,7,8,8a-hexahydro-1H-pyrrolo[2,1-c][1,4]oxazin-7-yl]oxy]-5-chloro-3-methyl-phenyl]thieno[3,2-b]pyridin-2-yl]methyl]-1-methyl-pyrimidine-2,4-dione]
< 1000 | Cc1cc(Cl)cc(-c2ncnc3cc(Cn4c(=O)ccn(C(C)C)c4=O)sc23)c1O[C@@H]1CCNC[C@@H]1C [Example 508, 3-[[4-[5-chloro-3-methyl-2-[[(3S,4R)-3-methyl-4-piperidyl]oxy]phenyl]thieno[3,2-d]pyrimidin-6-yl]methyl]-1-isopropyl-pyrimidine-2,4-dione]
< 1000 | Cc1cc(Cl)cc(-c2ccnc3cc(Cn4c(=O)[nH]cc(C)c4=O)sc23)c1O[C@H]1CCCNC1 [Example 479, 3-[[7-[5-chloro-3-methyl-2-[[(3S)-3-piperidyl]oxy]phenyl]thieno[3,2-b]pyridin-2-yl]methyl]-5-methyl-1H-pyrimidine-2,4-dione]
< 1000 | Cc1cc(Cl)cc(-c2ccnc3cc(Cn4c(=O)ccn(C)c4=O)sc23)c1O[C@@H]1C[C@@H]2COCCN2C1 [Example 502, 3-[[7-[2-[[(7R,8aR)-3,4,6,7,8,8a-hexahydro-1H-pyrrolo[2,1-c][1,4]oxazin-7-yl]oxy]-5-chloro-3-methyl-phenyl]thieno[3,2-b]pyridin-2-yl]methyl]-1-methyl-pyrimidine-2,4-dione]
< 1000 | Cc1cc(Cl)cc(-c2ccnc3cc(Cn4c(=O)ccn(CC(F)(F)F)c4=O)sc23)c1O[C@@H]1CN(C2CCOC2)C[C@@H]1C (stereo partly drawn) [Example 605, 3-[[7-[5-chloro-3-methyl-2-[(3S,4S)-4-methyl-1-tetrahydrofuran-3-yl-pyrrolidin-3-yl]oxy-phenyl]thieno[3,2-b]pyridin-2-yl]methyl]-1-(2,2,2-trifluoroethyl)pyrimidine-2,4-dione]
< 1000 | Cc1cc(Cl)cc(-c2ncnc3cc(Cn4c(=O)ccn(CC(F)(F)F)c4=O)sc23)c1OC1CC2CNC1C2 (stereo not drawn) [Example 526, 3-[[4-[2-(3-azabicyclo[2.2.1]heptan-5-yloxy)-5-chloro-3-methyl-phenyl]thieno[3,2-d]pyrimidin-6-yl]methyl]-1-(2,2,2-trifluoroethyl)pyrimidine-2,4-dione]

Structure (SMILES) | IC50 [nM]
Cc1cc([N+](=O)[O-])cc(-c2ccnc3cc(Cn4c(=O)ccn(CC(F)(F)F)c4=O)sc23)c1Oc1cn[nH]c1 [Example 614] | < 1000
Cc1cc(Cl)cc(-c2ccnc3cc(Cn4c(=O)ccn(CC(F)(F)F)c4=O)sc23)c1O[C@H]1CC[C@H](N)C1 [Example 596, 3-[[7-[2-[(1S,3S)-3-aminocyclopentoxy]-5-chloro-3-methyl-phenyl]thieno[3,2-b]pyridin-2-yl]methyl]-1-(2,2,2-trifluoroethyl)pyrimidine-2,4-dione; 2,2,2-trifluoroacetic acid] | < 1000

From patent US10722514B2 (FLX Bio, Inc., priority 2017, dated 2020)
